Converted amounts (≈) assume the structure as drawn. Read-outs that look alike come from different tables or passages of the source.
How the values were obtained:
Type in all cases: physicochemical
[1] = Solid state stability of N-2 free base form
Procedure: Solid state stability was conducted only on N-2, at 5° C., 25° C., 40° C./75% RH (open and closed), and 50° C. for up to 4 weeks.

[2] = Solubility of N-2 in water and solvents
Procedure: N-2 has an aqueous solubility of <1 μg/mL in water.

[3] = Form stability on heating (PXRD); conditions: heating to 270° C.
Procedure: FIG. 1 depicts PXRD patterns of the N-2 form at room temperature (bottom), 165° C. (middle) and 270° C. (top).
The crystal structure for Compound 1 was determined by single crystal X-ray diffraction studies on elongated prismatic crystals grown from THF/heptane. The intermolecular hydrogen-bonding in the N-2 structure is shown in FIGS. 12A-12B; the structure contains small voids of about 20 Å^3. The experimental PXRD pattern for N-2 matches the simulated pattern which confirms the single phase identity of N-2 crystallized in bulk (FIG. 13). […] (FIG. 1).

[4] = Form stability on slurrying in aqueous solutions (PXRD); conditions: slurry at RT in FASIF and in HCl (pH=1)
Description: FIG. 16 depicts PXRD patterns of: P1 form following slurrying thereof in FASIF (fasted state simulated intestinal fluid) (top); in HCl (pH=1) (middle); and of N-2 form (bottom). […] (FIG. 14). […] (FIG. 15).

Solid state stability (chemical and physical) ([1]; 5° C., 25° C., 40° C./75% RH (open and closed), and 50° C. for up to 4 weeks) | Stability when exposed to high intensity light (HIL)/ultraviolet (UV) light ([1]; HIL/UV light for 7 days) | solubility ([2]; PEG 400, organic solvent or mixture, read-out: solubility in PEG 400) [mg/mL] | solubility ([2]; in water, read-out: aqueous solubility) [mg/mL] | Physical form after heating [3] | Form after slurrying in aqueous solutions [4] | SMILES
chemically and physically stable | chemically and physically stable | ~38 (≈ 66.1 mM) | < 0.001 | No physical change in form | – | Cc1cccc2c1NC(=O)[C@@H](NC(=O)[C@H](CCC(F)(F)F)[C@H](CCC(F)(F)F)C(N)=O)N=C2c1cccc(F)c1 [Compound N-2]
– | – | – | – | – | converts to N-2 | Cc1cccc2c1NC(=O)[C@@H](NC(=O)[C@H](CCC(F)(F)F)[C@H](CCC(F)(F)F)C(N)=O)N=C2c1cccc(F)c1 [Compound P1]
